Structures are written as SMILES.

A word on the inhibition: it is the drop in the measured response relative to a control, in per cent.

Chain of recombinant mTOR (P42345 1360-2549): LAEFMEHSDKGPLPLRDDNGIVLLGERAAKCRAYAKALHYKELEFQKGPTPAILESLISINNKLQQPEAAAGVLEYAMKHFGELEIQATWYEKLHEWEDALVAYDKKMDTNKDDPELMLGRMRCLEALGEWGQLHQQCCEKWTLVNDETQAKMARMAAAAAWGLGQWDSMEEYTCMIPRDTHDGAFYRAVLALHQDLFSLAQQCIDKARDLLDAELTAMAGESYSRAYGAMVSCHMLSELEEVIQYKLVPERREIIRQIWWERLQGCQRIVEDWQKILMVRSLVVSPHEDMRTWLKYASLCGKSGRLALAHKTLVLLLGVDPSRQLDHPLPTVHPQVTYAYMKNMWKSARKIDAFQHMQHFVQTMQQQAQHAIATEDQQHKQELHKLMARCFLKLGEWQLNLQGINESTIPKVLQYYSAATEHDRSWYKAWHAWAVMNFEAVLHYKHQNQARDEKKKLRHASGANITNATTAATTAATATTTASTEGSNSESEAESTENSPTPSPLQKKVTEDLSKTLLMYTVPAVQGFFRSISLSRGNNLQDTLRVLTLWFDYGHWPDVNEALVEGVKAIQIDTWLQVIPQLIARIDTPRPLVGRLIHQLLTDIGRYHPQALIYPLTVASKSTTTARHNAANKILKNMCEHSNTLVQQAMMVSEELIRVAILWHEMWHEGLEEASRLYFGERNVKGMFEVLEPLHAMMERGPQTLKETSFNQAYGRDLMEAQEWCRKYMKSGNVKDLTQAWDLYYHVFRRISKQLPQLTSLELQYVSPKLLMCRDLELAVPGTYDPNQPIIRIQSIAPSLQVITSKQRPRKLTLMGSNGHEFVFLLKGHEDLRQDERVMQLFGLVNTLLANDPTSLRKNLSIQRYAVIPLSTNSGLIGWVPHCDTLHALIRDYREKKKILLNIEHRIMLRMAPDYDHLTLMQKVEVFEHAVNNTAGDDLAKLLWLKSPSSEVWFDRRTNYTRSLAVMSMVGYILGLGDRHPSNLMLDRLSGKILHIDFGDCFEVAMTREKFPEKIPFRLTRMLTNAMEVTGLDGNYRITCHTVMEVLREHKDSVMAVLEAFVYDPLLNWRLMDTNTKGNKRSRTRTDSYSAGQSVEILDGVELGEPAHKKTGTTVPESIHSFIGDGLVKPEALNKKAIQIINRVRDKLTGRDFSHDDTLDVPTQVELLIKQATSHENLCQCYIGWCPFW

The target in the test is recombinant mTOR (Homo sapiens (Human), UniProt P42345). Put plainly: mTOR kinase assay (33P incorporation into 4EBP1). Format: biochemical. Particulars: compound at 10 μM, 10 μM ATP. Here is the method:
The activity of the compound against mTOR was examined by measuring the incorporation of ^33P from [γ-^33P]-ATP into 4EBP1. His-tagged, recombinant human 4EBP1 was expressed in E. coli, purified by nickel-nitrilotriacetic acid (Ni-NTA) resins, and stored at −80° C. Phosphorylation of 4EBP1 by mTOR was assayed in the presence or absence of the compound and performed in a final volume of 25 μl reaction buffer containing 300 ng 4EBP1, 50 ng recombinant mTOR (Invitrogen), 50 mM HEPES (pH 7.5), 1 mM EGTA, 0.01% Polysorbate 20, 10 mM MnCl2, 2.5 mM DTT, 10 μM ATP, and 0.5 μCi [γ-33P]-ATP (PerkinElmir) for 30 min at 30° C. The reactions were terminated by adding 3% phosphoric acid. The ^33P labeled 4EBP1 was transferred onto UniFilter-96 GF/B plate (PerkinElmer) and quantified by Top Count Microplate Scintillation Counter (PerkinElmer). For primary screening of kinase activity inhibition, each test compound was evaluated at […] in duplicate. […] The IC50 values of the compounds were determined after carrying out assays at eight serially diluted concentrations of each compound in duplicate. The results were analyzed using linear regression software (GraphPad Prism 5; GraphPad Software Inc.).
IC50 value is defined as the concentration of the test compound which achieves a half-maximal inhibition of the kinase activity.
As for `CSc1cnc(-c2ccc(NC(=O)Nc3ccc4c(c3)OCO4)cc2)nc1N1CCOCC1` [MTR-0317, 1-Benzo[1,3]dioxol-5-yl-3-[4-(5-methylsulfanyl-4-morpholin-4-yl-pyrimidin-2-yl)-phenyl]-urea], the inhibition at 10 µM turned out to be 93%.

Take `CCOC(=O)c1nc(-c2ccc(NC(=O)Nc3ccc(N4CCOCC4)nc3)cc2)nc(N2CCOCC2)c1OCC` [MTR-0276, 5-Ethoxy-6-morpholin-4-yl-2-{4-[3-(6-morpholin-4-yl-pyridin-3-yl)-ureido]-phenyl}-pyrimidine-4-carboxylic acid ethyl ester]: the inhibition at 10 µM worked out at 82%.

Regarding `CCOC(=O)c1nc(-c2cccc(O)c2)nc(N2CCOCC2)c1OC` [MTR-0073, 2-(3-Hydroxy-phenyl)-5-methoxy-6-morpholin-4-yl-pyrimidine-4-carboxylic acid ethyl ester], the inhibition at 10 µM was 86%.

As for `COc1cnc(-c2ccc(NC(=O)Nc3ccc(N4CCN(C)CC4)cn3)cc2)nc1N1CCOCC1` [MTR-0334, 1-[4-(5-Methoxy-4-morpholin-4-yl-pyrimidin-2-yl)-phenyl]-3-[5-(4-methyl-piperazin-1-yl)-pyridin-2-yl]-urea], the inhibition at 10 µM was 93%.

On to `CCOc1c(C(=O)N2CCN(C)CC2)nc(-c2ccc(NC(=O)Nc3ccccc3)cc2)nc1N1CCOCC1` [MTR-0186, 1-{4-[5-Ethoxy-4-(4-methyl-piperazine-1-carbonyl)-6-morpholin-4-yl-pyrimidin-2-yl]-phenyl}-3-phenyl-urea], for which the inhibition at 10 µM is 96%.

Regarding `CSc1c(-c2cccnc2)nc(-c2ccc(NC(=S)Nc3ccccc3)cc2)nc1N1CCOCC1` [MTR-0440, 1-[4-(5-Methylsulfanyl-4-morpholin-4-yl-6-pyridin-3-yl-pyrimidin-2-yl)-phenyl]-3-phenyl-thiourea], the inhibition at 10 µM is 89%.

As for `COc1cnc(-c2ccc(NC(=O)Nc3ccc(NC(C)=O)nc3)cc2)nc1N1CCOCC1` [MTR-0486, N-(5-{3-[4-(5-Methoxy-4-morpholin-4-yl-pyrimidin-2-yl)-phenyl]-ureido}-pyridin-2-yl)-acetamide], the inhibition at 10 µM was determined as 88%.

As for `CSc1c(Cl)nc(-c2ccc(NC(=S)Nc3ccc(C(=O)O)cc3)cc2)nc1N1CCOCC1` [MTR-0293, 4-{3-[4-(4-Chloro-5-methylsulfanyl-6-morpholin-4-yl-pyrimidin-2-yl)-phenyl]-thioureido}-benzoic acid], the inhibition at 10 µM is 83%.

Regarding `CCOC(=O)c1nc(-c2ccc(NC(=O)Nc3ccc4[nH]c(=O)oc4c3)cc2)nc(N2CCOCC2)c1OCC` [MTR-0423, 5-Ethoxy-6-morpholin-4-yl-2-{4-[3-(2-oxo-2,3-dihydro-benzooxazol-6-yl)-ureido]-phenyl}-pyrimidine-4-carboxylic acid ethyl ester], the inhibition at 10 µM amounted to 95%.

For the compound `CCOC(=O)c1nc(-c2ccc(NC(=O)NC(C)C)cc2)nc(N2CCOCC2)c1OCC` [MTR-0366, 5-Ethoxy-2-[4-(3-isopropyl-ureido)-phenyl]-6-morpholin-4-yl-pyrimidine-4-carboxylic acid ethyl ester], the inhibition at 10 µM stood at 85%.

For `COc1cnc(-c2ccc(NC(=O)Nc3ccc(Br)nc3)cc2)nc1N1CCOCC1` [MTR-0352, 1-(6-Bromo-pyridin-3-yl)-3-[4-(5-methoxy-4-morpholin-4-yl-pyrimidin-2-yl)-phenyl]-urea], the inhibition at 10 µM was 94%.

As for `CSc1c(Cl)nc(-c2ccc(NC(=O)Nc3ccc(C(N)=O)cc3)cc2F)nc1N1CCOCC1` [MTR-0411, 4-{3-[4-(4-Chloro-5-methylsulfanyl-6-morpholin-4-yl-pyrimidin-2-yl)-3-fluoro-phenyl]-ureido}-benzamide], the inhibition at 10 µM amounted to 93%.

Turning to `CSc1c(Cl)nc(-c2ccc(NC(=O)Nc3ccc(N4CCOCC4)cn3)cc2)nc1N1CCOCC1` [MTR-0328, 1-[4-(4-Chloro-5-methylsulfanyl-6-morpholin-4-yl-pyrimidin-2-yl)-phenyl]-3-(5-morpholin-4-yl-pyridin-2-yl)-urea], the inhibition at 10 µM was determined as 85%.

Take `CCOC(=O)c1nc(-c2ccc(NC(=O)Nc3ccc(Cl)nc3)cc2)nc(N2CCOCC2)c1OCC` [MTR-0079, 2-{4-[3-(6-Chloro-pyridin-3-yl)-ureido]-phenyl}-5-ethoxy-6-morpholin-4-yl-pyrimidine-4-carboxylic acid ethyl ester]: the inhibition at 10 µM amounted to 83%.

Regarding `CSc1c(Cl)nc(-c2ccc(NC(=O)Nc3nccs3)cc2)nc1N1CCOCC1` [MTR-0200, 1-[4-(4-Chloro-5-methylsulfanyl-6-morpholin-4-yl-pyrimidin-2-yl)-phenyl]-3-thiazol-2-yl-urea], the inhibition at 10 µM came out at 84%.

Regarding `CCOc1c(-c2ccncc2)nc(-c2ccc(NC(=O)Nc3ccc(N4CCOCC4=O)cc3)cc2)nc1N1CCOCC1` [MTR-0495, 1-[4-(5-Ethoxy-4-morpholin-4-yl-6-pyridin-4-yl-pyrimidin-2-yl)-phenyl]-3-[4-(3-oxo-morpholin-4-yl)-phenyl]-urea], the inhibition at 10 µM came out at 100%.

For `CCOC(=O)c1nc(-c2ccc(NC(=O)Nc3ccc(N4CCN(S(C)(=O)=O)CC4)cc3)cc2)nc(N2CCOCC2)c1OCC` [MTR-0419, 5-Ethoxy-2-(4-{3-[4-(4-methanesulfonyl-piperazin-1-yl)-phenyl]-ureido}-phenyl)-6-morpholin-4-yl-pyrimidine-4-carboxylic acid ethyl ester], the inhibition at 10 µM stood at 82%.

For the compound `CSc1c(Cl)nc(-c2ccc(NC(=O)Nc3ccc(S(=O)(=O)N4CCOCC4)cc3)cc2)nc1N1CCOCC1` [MTR-0435, 1-[4-(4-Chloro-5-methylsulfanyl-6-morpholin-4-yl-pyrimidin-2-yl)-phenyl]-3-[4-(morpholine-4-sulfonyl)-phenyl]-urea], the inhibition at 10 µM is 90%.

For the compound `CCOc1c(-c2cccnc2)nc(-c2ccc(NC(=O)Nc3ccc(N4CCOCC4=O)cc3)cc2)nc1N1CCOCC1` [MTR-0496, 1-[4-(5-Ethoxy-4-morpholin-4-yl-6-pyridin-3-yl-pyrimidin-2-yl)-phenyl]-3-[4-(3-oxo-morpholin-4-yl)-phenyl]-urea], the inhibition at 10 µM was found to be 95%.

For the compound `COc1cnc(-c2ccc(NC(=S)Nc3ccc(F)cc3)cc2)nc1N1CCOCC1`, the inhibition at 10 µM stood at 89%.

On to `COc1ccc(NC(=O)Nc2ccc(-c3ncc(OC)c(N4CCOCC4)n3)cc2)cc1OC` [MTR-0239, 1-(3,4-Dimethoxy-phenyl)-3-[4-(5-methoxy-4-morpholin-4-yl-pyrimidin-2-yl)-phenyl]-urea], for which the inhibition at 10 µM is 89%.

On to `CSc1cnc(-c2ccc(NC(=O)NC(C)C)cc2)nc1N1CCOCC1` [MTR-0341, 1-Isopropyl-3-[4-(5-methylsulfanyl-4-morpholin-4-yl-pyrimidin-2-yl)-phenyl]-urea], for which the inhibition at 10 µM is 83%.

`CSc1c(Cl)nc(-c2ccc(NC(=O)Nc3ccc(NC(C)=O)nc3)cc2)nc1N1CCOCC1` [MTR-0415, N-(5-{3-[4-(4-Chloro-5-methylsulfanyl-6-morpholin-4-yl-pyrimidin-2-yl)-phenyl]-ureido}-pyridin-2-yl)-acetamide]: the inhibition at 10 µM is 81%.

Regarding `CCOc1c(Cl)nc(-c2ccc(NC(=O)Nc3ccc(N4CCOCC4=O)cc3)cc2)nc1N1CCOCC1` [MTR-0494, 1-[4-(4-Chloro-5-ethoxy-6-morpholin-4-yl-pyrimidin-2-yl)-phenyl]-3-[4-(3-oxo-morpholin-4-yl)-phenyl]-urea], the inhibition at 10 µM was found to be 86%.

For the compound `COc1cnc(-c2ccc(NC(=O)Nc3ccncc3)cc2)nc1-c1ccncc1` [MTR-0480, 1-[4-(5-Methoxy-4-pyridin-4-yl-pyrimidin-2-yl)-phenyl]-3-pyridin-4-yl-urea], the inhibition at 10 µM is 90%.

As to `CCOC(=O)c1nc(-c2ccc(NC(=O)Nc3ccc4c(c3)OCO4)cc2)nc(N2CCOCC2)c1OCC` [MTR-0361, 2-[4-(3-Benzo[1,3]dioxol-5-yl-ureido)-phenyl]-5-ethoxy-6-morpholin-4-yl-pyrimidine-4-carboxylic acid ethyl ester], the inhibition at 10 µM came out at 95%.

With `CSc1cnc(-c2ccc(Nc3nc4ccccc4[nH]3)cc2)nc1N1CCOCC1` [MTR-0289, (1H-Benzoimidazol-2-yl)-[4-(5-methylsulfanyl-4-morpholin-4-yl-pyrimidin-2-yl)-phenyl]-amine], the inhibition at 10 µM was 91%.

For `CCOC(=O)c1nc(-c2ccc(Nc3nc4ccccc4[nH]3)cc2)nc(N2CCOCC2)c1OCC` [MTR-0243, 2-[4-(1H-Benzoimidazol-2-ylamino)-phenyl]-5-ethoxy-6-morpholin-4-yl-pyrimidine-4-carboxylic acid ethyl ester], the inhibition at 10 µM was 92%.

In the case of `CSc1c(Cl)nc(-c2ccc(NC(=O)Nc3ccc(N4CCOCC4)nc3)cc2)nc1N1CCOCC1` [MTR-0237, 1-[4-(4-Chloro-5-methylsulfanyl-6-morpholin-4-yl-pyrimidin-2-yl)-phenyl]-3-(6-morpholin-4-yl-pyridin-3-yl)-urea], the inhibition at 10 µM was 85%.

Take `CCOc1c(-c2cccnc2)nc(-c2ccc(NC(=O)Nc3cccnc3)cc2)nc1N1CCOCC1` [MTR-0491, 1-[4-(5-Ethoxy-4-morpholin-4-yl-6-pyridin-3-yl-pyrimidin-2-yl)-phenyl]-3-pyridin-3-yl-urea]: the inhibition at 10 µM worked out at 100%.

For `CCOc1c(-c2ccncc2)nc(-c2ccc(NC(=O)Nc3ccncc3)cc2)nc1N1CCOCC1` [MTR-0492, 1-[4-(5-Ethoxy-4-morpholin-4-yl-6-pyridin-4-yl-pyrimidin-2-yl)-phenyl]-3-pyridin-4-yl-urea], the inhibition at 10 µM stood at 100%.

The values above are taken from US9315491B2 (DEVELOPMENT CENTER FOR BIOTECHNOLOGY, priority 2009, dated 2016).
